# Measured values as given in ChEMBL document CHEMBL5523703, “Modulators for palmitoylation of proteins and small molecules” (Eur J Med Chem, 2024).
# Where a name gives a salt, the structure may show the parent alone.
# Columns and labels:
# Plasmodium falciparum = assay: […] activity against Plasmodium falciparum assessed as reduction in microbial growth; assay type: functional
# [1] = target: Tyrosine-protein kinase Lck (Homo sapiens, UniProt P06239); assay: Inhibition of N-terminal human recombinant Lck expressed in baculovirus infected in Sf9 cells
# Tyrosine-protein kinase Lck, sequence (P06239 whole entry): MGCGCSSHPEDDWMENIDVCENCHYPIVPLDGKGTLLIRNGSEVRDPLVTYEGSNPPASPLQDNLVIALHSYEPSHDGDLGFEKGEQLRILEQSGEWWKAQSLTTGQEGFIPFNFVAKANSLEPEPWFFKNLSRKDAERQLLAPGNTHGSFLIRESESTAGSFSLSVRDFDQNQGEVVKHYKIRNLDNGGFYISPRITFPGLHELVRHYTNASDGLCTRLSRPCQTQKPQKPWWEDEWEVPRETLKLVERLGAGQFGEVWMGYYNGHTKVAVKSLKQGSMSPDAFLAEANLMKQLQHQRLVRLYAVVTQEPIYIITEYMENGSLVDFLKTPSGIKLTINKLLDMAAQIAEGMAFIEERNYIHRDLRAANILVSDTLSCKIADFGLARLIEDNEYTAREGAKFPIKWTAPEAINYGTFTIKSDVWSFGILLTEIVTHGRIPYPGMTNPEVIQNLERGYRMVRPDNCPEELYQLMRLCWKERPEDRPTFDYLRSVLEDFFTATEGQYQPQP
# [2] = target: T1, Protein-cysteine N-palmitoyltransferase HHAT (Homo sapiens, UniProt Q5VTY9); assay: Binding affinity to His-tagged HHAT (unknown origin) transfected in HEK293FT cells assessed as inhibition constant; assay type: cell-based
# T1 sequence (Q5VTY9 whole entry): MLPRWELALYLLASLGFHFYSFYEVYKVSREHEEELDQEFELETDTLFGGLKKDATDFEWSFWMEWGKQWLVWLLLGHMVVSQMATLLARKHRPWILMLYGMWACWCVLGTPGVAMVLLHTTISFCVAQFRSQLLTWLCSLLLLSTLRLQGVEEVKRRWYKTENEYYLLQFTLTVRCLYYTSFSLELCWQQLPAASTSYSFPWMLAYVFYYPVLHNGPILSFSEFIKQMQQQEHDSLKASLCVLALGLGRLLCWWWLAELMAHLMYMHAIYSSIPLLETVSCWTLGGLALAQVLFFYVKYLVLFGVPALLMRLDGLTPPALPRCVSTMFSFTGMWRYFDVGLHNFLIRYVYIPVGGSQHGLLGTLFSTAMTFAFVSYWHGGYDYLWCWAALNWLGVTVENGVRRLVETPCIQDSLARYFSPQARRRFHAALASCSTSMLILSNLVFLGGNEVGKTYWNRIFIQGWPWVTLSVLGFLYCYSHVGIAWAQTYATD
# [3] = target: Carnitine O-palmitoyltransferase 2, mitochondrial (Homo sapiens, UniProt P23786); assay: Inhibition of human CPT2
# Carnitine O-palmitoyltransferase 2, mitochondrial (Homo sapiens, UniProt P23786), sequence (P23786 whole entry, canonical isoform): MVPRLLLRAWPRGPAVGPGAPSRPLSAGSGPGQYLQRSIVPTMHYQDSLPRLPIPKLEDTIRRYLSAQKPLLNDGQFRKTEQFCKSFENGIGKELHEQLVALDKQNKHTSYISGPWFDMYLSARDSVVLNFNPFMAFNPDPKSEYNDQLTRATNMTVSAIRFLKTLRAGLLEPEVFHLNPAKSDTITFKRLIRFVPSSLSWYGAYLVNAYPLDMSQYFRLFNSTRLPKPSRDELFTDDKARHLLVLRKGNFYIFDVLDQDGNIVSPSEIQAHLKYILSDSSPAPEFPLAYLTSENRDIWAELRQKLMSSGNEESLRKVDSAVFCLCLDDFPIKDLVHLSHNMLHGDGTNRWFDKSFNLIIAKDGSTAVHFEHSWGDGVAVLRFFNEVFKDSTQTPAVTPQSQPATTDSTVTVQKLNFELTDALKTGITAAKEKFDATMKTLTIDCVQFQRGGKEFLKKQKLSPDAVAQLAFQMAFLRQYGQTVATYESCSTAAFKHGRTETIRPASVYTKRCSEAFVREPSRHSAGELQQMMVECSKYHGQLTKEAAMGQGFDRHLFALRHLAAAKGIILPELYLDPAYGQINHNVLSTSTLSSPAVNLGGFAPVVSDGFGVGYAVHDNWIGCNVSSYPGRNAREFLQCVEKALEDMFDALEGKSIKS
# [4] = target: T2, Carnitine O-palmitoyltransferase 1, liver isoform (Homo sapiens, UniProt P50416); assay: Inhibition of human CPT1
# T2 sequence (P50416 whole entry): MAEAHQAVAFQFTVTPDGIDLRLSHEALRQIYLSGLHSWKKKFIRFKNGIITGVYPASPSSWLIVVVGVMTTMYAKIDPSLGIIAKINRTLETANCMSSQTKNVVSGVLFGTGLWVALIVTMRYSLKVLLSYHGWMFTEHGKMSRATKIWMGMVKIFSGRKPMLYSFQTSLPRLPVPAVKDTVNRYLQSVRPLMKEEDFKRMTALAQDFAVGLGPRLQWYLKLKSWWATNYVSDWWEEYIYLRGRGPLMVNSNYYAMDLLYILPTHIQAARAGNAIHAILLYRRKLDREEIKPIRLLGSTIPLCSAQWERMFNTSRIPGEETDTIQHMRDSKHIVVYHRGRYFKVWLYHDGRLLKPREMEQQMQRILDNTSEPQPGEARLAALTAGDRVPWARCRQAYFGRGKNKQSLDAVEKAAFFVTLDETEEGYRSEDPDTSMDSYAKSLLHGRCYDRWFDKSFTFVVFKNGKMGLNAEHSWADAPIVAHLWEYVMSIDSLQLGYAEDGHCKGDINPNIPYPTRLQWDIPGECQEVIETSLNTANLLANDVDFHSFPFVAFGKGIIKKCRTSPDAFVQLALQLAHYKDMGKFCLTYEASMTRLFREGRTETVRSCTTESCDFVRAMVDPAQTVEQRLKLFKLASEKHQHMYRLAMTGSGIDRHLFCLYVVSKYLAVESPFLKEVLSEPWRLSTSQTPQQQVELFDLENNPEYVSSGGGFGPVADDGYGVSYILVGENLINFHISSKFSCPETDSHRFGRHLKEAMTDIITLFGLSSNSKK
# [5] = target: T3, Carnitine O-palmitoyltransferase 1, liver isoform (Rattus norvegicus, UniProt P32198); assay: Inhibition of rat hepatocytes CPT1A; assay type: cell-based, Hepatocyte
# T3 sequence (P32198 whole entry): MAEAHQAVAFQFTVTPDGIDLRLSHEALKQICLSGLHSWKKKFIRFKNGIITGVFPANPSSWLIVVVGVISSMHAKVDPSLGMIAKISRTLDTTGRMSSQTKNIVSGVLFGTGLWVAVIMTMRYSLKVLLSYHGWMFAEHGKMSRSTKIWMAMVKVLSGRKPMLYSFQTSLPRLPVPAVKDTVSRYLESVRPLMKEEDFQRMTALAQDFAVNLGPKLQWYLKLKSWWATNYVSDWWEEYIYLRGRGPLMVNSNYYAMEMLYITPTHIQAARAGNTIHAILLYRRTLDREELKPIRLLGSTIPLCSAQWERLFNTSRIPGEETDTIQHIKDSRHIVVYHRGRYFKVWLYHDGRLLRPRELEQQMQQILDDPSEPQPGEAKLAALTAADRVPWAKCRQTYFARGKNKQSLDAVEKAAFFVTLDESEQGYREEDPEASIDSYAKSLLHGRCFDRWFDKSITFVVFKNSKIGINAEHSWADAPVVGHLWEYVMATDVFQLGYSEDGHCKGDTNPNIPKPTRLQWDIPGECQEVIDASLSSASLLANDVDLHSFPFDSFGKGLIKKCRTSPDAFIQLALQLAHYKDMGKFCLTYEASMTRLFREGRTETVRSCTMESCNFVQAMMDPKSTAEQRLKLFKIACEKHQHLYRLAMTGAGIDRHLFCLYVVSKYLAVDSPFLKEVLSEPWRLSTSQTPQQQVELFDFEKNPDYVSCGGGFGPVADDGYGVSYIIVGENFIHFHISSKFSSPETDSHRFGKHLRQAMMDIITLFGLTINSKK
# [6] = target: T4, Carnitine O-palmitoyltransferase 1, muscle isoform (Homo sapiens, UniProt Q92523); assay: Inhibition of CPT1B (unknown origin) in KB cells; assay type: cell-based
# T4 sequence (Q92523 whole entry): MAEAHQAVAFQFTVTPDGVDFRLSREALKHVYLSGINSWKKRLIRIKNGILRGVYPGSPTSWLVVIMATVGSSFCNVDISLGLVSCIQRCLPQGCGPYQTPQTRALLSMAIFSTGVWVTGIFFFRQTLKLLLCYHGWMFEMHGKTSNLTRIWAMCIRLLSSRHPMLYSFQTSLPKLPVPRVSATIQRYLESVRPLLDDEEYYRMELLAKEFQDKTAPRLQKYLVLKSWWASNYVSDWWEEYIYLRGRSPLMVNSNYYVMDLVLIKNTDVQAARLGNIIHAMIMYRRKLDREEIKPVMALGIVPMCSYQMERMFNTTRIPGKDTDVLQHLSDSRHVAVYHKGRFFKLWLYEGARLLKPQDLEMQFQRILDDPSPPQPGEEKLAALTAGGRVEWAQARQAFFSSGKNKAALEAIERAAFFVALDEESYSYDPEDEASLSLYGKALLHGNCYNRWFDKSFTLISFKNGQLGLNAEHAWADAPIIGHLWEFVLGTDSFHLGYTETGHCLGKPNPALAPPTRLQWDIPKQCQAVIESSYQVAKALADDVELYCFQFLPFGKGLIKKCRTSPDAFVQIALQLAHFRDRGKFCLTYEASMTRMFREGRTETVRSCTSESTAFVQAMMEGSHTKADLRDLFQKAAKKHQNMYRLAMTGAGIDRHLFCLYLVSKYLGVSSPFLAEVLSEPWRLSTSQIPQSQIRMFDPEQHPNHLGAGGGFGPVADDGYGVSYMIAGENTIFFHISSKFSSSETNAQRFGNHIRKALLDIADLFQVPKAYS
# [7] = Half life in mouse by LC-MS/MS analysis; assay type: ADME; details: in vivo, route po
# Homo sapiens [8] = species on record: Homo sapiens; assay: Binding affinity to ZDHHC (unknown origin) assessed as inactivation constant
# MCF7 = assay: Antiproliferative activity against human MCF7 cells assessed as reduction in cell growth measured after 72 hrs by MTT assay; assay type: functional, cell-based; details: MCF7, 72 h
# Homo sapiens [9] = species on record: Homo sapiens; assay: Inhibition of ZDHHC (unknown origin) at 20 uM relative to control
# [10] = target: T4, Carnitine O-palmitoyltransferase 1, muscle isoform; assay: Inhibition of CPT1B (unknown origin)
# [11] = target: T3, Carnitine O-palmitoyltransferase 1, liver isoform; assay: Binding affinity to rat liver mitochondria CPT1 assessed as inhibition constant incubated for 3 to 6 mins by Liquid scintillation counting method
# [12] = target: T1, Protein-cysteine N-palmitoyltransferase HHAT; assay: Inhibition of HHAT (unknown origin)
# LN-18 = assay: Antitumor activity against human LN-18 cells assessed as reduction in cell growth incubated for 72 hrs in presence of sirtuins inhibitor by crystal violet staining based analysis; assay type: functional; details: LN-18, 72 h
# [13] = target: Carnitine O-palmitoyltransferase 2, mitochondrial (Rattus norvegicus, UniProt P18886); assay: Inhibition of rat CPT2
# Carnitine O-palmitoyltransferase 2, mitochondrial (Rattus norvegicus, UniProt P18886), sequence (P18886 whole entry): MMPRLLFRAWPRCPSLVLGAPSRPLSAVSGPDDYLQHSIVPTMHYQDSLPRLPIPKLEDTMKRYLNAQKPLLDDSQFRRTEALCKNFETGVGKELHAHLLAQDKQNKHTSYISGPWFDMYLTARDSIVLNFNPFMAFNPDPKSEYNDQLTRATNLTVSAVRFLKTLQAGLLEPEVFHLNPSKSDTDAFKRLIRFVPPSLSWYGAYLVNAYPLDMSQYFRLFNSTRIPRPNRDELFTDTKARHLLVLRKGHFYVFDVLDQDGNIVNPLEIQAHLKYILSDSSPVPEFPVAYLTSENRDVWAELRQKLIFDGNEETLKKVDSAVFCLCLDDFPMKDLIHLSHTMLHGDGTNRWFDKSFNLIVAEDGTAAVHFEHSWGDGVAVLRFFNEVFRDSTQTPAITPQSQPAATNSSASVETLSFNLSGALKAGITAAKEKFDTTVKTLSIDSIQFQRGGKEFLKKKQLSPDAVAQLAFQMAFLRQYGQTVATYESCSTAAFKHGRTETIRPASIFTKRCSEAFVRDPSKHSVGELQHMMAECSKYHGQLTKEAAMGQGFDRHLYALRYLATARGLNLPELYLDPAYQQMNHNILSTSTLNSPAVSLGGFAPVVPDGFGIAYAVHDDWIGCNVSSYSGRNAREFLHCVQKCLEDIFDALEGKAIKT
# [14] = Inhibition of SPT in mouse Neuro2a cells; assay type: cell-based
# [15] = Inhibition of SPT (unknown origin); design: species or system Homo sapiens
# [16] = target: T2, Carnitine O-palmitoyltransferase 1, liver isoform; assay: Binding affinity to CPT1 (unknown origin) assessed as inhibition constant
# [17] = target: T2, Carnitine O-palmitoyltransferase 1, liver isoform; assay: Inhibition of CPT1 (unknown origin)
smiles,measurement,setting,value
CCCCCCCCCCCCOC(=O)[C@@H](N)CC(C)C,MIC,Plasmodium falciparum,0.78 µg/mL
CCCCCCCCCCCCCCC(Br)C(=O)O (stereo not given),IC50,[1],10 µM
CCC(C)CNCC(=O)N1CCc2sccc2C1COc1cccc(C)c1 (stereo not given),Ki,[2],7.4 µM
COc1cccc2c1C(=O)c1c(O)c3c(c(O)c1C2=O)C[C@@](O)(C(=O)CO)C[C@@H]3O[C@H]1C[C@H](N)[C@H](O)[C@H](C)O1 [DOXORUBICIN HYDROCHLORIDE],IC50,[3],> 100 µM
same,IC50,[4],250 µM
COc1ccc(Cl)cc1S(=O)(=O)N1CC(C(=O)O)Oc2ccc(C(=O)Nc3cccc(F)c3)cc21 (stereo not given),IC50,[5],1.34 µM
same,IC50,[6],0.016 µM
CNS(=O)(=O)c1ccc(Nc2ccc(C(F)(F)F)cc2)c(-c2cn(C)cn2)c1,half-life,[7],13.2 h
N[C@H]1CONC1=O,Kinact,Homo sapiens [8],0.83 M⁻¹ s⁻¹
C=CC(=O)NCc1ccc(OC(=O)c2cccc(Oc3ccccc3)c2)cc1,IC50,MCF7,50 µM
same,inhibition,Homo sapiens [9],89.5%
COc1ccc(CN2CCN(CCCSc3cc(C(C)(C)C)c(O)c(C(C)(C)C)c3)CC2)c(OC)c1OC,IC50,[10],16.8 µM
"CCCCCCCCCCCCCCCC1(O)C[C@H](CC(=O)[O-])C[N+](C)(C)C1 (single isomer, unassigned)",Ki,[11],4.2 µM
CCC(C)CNCC(=O)N1CCc2sccc2C1c1cccc(C)c1 (stereo not given),IC50,[12],0.46 µM
CC(C)(C)NC1CCN(c2cc(NCc3ccc(Cl)cc3)nc3ccccc23)CC1 [EZURPIMTROSTAT],IC50,LN-18,0.22 µM
C1CCC(C(CC2CCCCN2)C2CCCCC2)CC1 (stereo not given) [PERHEXILINE],IC50,[13],77 µM
CNC(=O)c1ccc2c(c1)CC(=O)N2C1CCN(CC(=O)N2CC3CCCC3C2)CC1 (stereo not given),IC50,[14],9.5 µM
same,IC50,[15],0.0273 µM
CCCCCCCCCCCCCCNC(=O)N[C@H](CC(=O)[O-])C[N+](C)(C)C,Ki,[16],0.36 µM
same,IC50,[17],0.68 µM
